Where two headings read alike, the source gives them in different places.
Tests used:
[1] = tested on: MRC-5: human lung fibroblast cells; test: MTT cytotoxicity assay on MRC-5 cells; format: cell-based; conditions: MRC5, 24 h incubation, n = 3, ± standard deviation
Procedure: (§1) Cytotoxicity was determined using the MTT colorimetric assay, and half-maximal inhibitory concentrations (IC50, μM) were obtained for all cell lines (Table ). The selectivity index (SI) was calculated as the ratio of IC50 MRC-5/IC50 cancer cell line. Doxorubicin was employed as a positive control due to its broad-spectrum clinical use, either alone or in combination, against hepatocellular, ovarian, cervical, and bladder cancers. −
(§2) In vitro biological assays were performed by using five human cell lines for cytotoxicity evaluation. HepG2 cells (ATCC HB-8065), derived from a human hepatocellular carcinoma of the liver (person), were cultured in Dulbecco’s modified Eagle medium (DMEM) supplemented with 5% fetal bovine serum (FBS), penicillin/streptomycin (100 IU/mL), and amphotericin B (5 μg/mL), in a humidified incubator with 5% CO2 at 37 °C. These cells were plated at a concentration of 2.0 × 10^4 cells/well in 96-well microplates. MRC-5 cells (ATCC CCL-171), derived from human lung fibroblasts of a […] fetus, were cultured under the same conditions and plated at 1.0 × 10^4 cells/well. T24 cells (ATCC HTB-4), established from a transitional cell carcinoma of the bladder (person), were also cultured under identical conditions and plated at a density of 1.0 × 10^4 cells/well. TOV-21G cells (ATCC CRL-11730), derived from a primary malignant ovarian adenocarcinoma (person), were maintained in DMEM with the same supplementation and environmental conditions and plated at 5.0 × 10^4 cells/well. […]
(§3) HeLa, HepG2, MRC-5, T24, and TOV-21G cells were suspended in a culture medium supplemented with 5% fetal bovine serum (FBS) and seeded into 96-well microplates. The plates were incubated under a humidified atmosphere containing 5% CO2 at 37 °C for 24 h, allowing for adherence and monolayer formation. , Eight serial dilutions of the test samples, previously solubilized in dimethyl sulfoxide (DMSO), were prepared in DMEM supplemented with 1% FBS, covering a concentration range from […], and the results were converted to […]. The volume of DMSO in each well was limited to a final concentration not exceeding 2%. Following monolayer formation, the culture medium was aspirated and replaced with 100 μL of the diluted test samples and 100 μL of DMEM containing 1% FBS. The plates were then incubated under the same atmospheric and temperature conditions.
(§4) Two hours prior to end point reading, 20 μL of MTT [3-(4,5-dimethylthiazol-2-yl)-2,5-diphenyltetrazolium bromide] solution (1.0 mg/mL in sterile phosphate-buffered saline, Sigma-Aldrich) was added to each well. The incubation period following sample addition varied according to the cell line: 24 h for MRC-5, 48 h for T24, and 72 h for HeLa, HepG2, and TOV-21G. After the appropriate incubation, absorbance was measured by using a VICTOR X3 microplate reader (PerkinElmer), and data were processed with WorkOut 2.5 software at a wavelength of 490 nm. Formazan formation, resulting from the MTT reduction by metabolically active cells, was used as an indirect measure of cell viability. The percentage of cytotoxicity was calculated using the equation % cytotoxicity = [(A – B)/A] × 100, where A is the optical density (OD4 9 0) of untreated control cells and B is the OD4 9 0 of treated cells.
(§5) Cytotoxicity was expressed as the 50% cytotoxic concentration (CC5 0), representing the concentration of sample required to reduce cell viability by 50% relative to that of the untreated control.

[2] = tested on: HepG2: human liver hepatocellular carcinoma cells; test: MTT cytotoxicity assay on HepG2 cells; format: cell-based; conditions: for IC50: Homo sapiens, HepG2, MTT, 72 h incubation, n = 3, NA: noncytotoxic at the concentrations tested; for SI (HepG2): IC50 MRC-5/IC50 HepG2
Procedure: as §1, §2, §3, §4, §5

[3] = tested on: T24: human urinary bladder carcinoma cells; test: MTT cytotoxicity assay on T24 cells; format: cell-based; conditions: for IC50: Homo sapiens, T-24, MTT, 48 h incubation, n = 3, NA: noncytotoxic at the concentrations tested; for SI (T24): IC50 MRC-5/IC50 T24
Procedure: as §1, §2, §3, §4, §5

[4] = tested on: TOV-21G: human ovarian adenocarcinoma cells; test: MTT cytotoxicity assay on TOV-21G cells; format: cell-based; conditions: for IC50: Homo sapiens, TOV21G, MTT, 72 h incubation, n = 3, NA: noncytotoxic at the concentrations tested; for SI (TOV-21G): IC50 MRC-5/IC50 TOV-21G
Procedure: as §1, §2, §3, §4, §5

[5] = tested on: HepG2: human liver hepatocellular carcinoma cells; set-up: method as in PMID 37944413; conditions: hit compound, earlier study of the group; read-out: IC50 HepG2 (earlier work); cited from earlier work
HepG2 cells = tested on: HepG2 cells; set-up: method as in PMID 37944413; conditions: hit compound, earlier study of the group; cited from earlier work
[6] = tested on: HeLa: human cervical adenocarcinoma cells; test: MTT cytotoxicity assay on HeLa cells; format: cell-based; conditions: for IC50: Homo sapiens, HeLa, MTT, 72 h incubation, n = 3, NA: noncytotoxic at the concentrations tested; for SI (HeLa): IC50 MRC-5/IC50 HeLa
Procedure: as §1, §2, §3, §4, §5

[7] = tested on: human hepatocellular carcinoma (HCC) cells; set-up: method as in Tsai and colleagues; conditions: subtoxic concentrations (5–20 μM); ref Tsai and colleagues; cited from earlier work

| SMILES | IC50 [1] [µM] | IC50 [2] [µM] | SI (HepG2) [2] | IC50 [3] [µM] | SI (T24) [3] | IC50 [4] [µM] | SI (TOV-21G) [4] | IC50 [5] [µM] | HepG2 cell migration (earlier work) (HepG2 cells) | IC50 [6] [µM] | SI (HeLa) [6] | activity against TOV-21G relative to hit 1 ([4]; ratio of IC50 values, 1 vs 2) | migration and invasion of human hepatocellular carcinoma (HCC) cells [7] |
| --- | --- | --- | --- | --- | --- | --- | --- | --- | --- | --- | --- | --- | --- |
| CCCc1cc(/C=C/C(=O)c2ccc(C)cc2)c(O)c(OC)c1 [compound 1] | 47.2 ± 1.3 | 4.2 ± 1.3 | 11.1 | > 161 | <0.2 | 7.2 ± 1.3 | 6.5 | 4.25 | inhibiting HepG2 cell migration |  |  |  |  |
| CCCc1cc(/C=C/C(=O)c2ccc(C)cc2)c(OC(C)=O)c(OC)c1 [compound 2, (E)-2-Methoxy-6-(3-oxo-3-(p-toluyl)-prop-1-en-1-yl)-4-propylphenyl Acetate] | 16.1 ± 1.5 | 4.2 ± 1.2 | 3.8 | 59.5 ± 1.5 | 0.2 | 1.2 ± 1.1 | 13.3 |  |  | 3.6 ± 1.3 | 4.7 | over six times more active |  |
| CCCc1cc(/C=C/C(=O)c2ccc(C)cc2)c(OCc2ccccc2)c(OC)c1 [compound 4, (E)-3-(2-(Benzyloxy)-3-methoxy-5-propylphenyl)-1-(p-toluyl)-prop-2-en-1-one] | 242.4 ± 2.4 | 16.9 ± 1.3 | 14.3 |  |  |  |  |  |  |  |  |  |  |
| COc1cc([N+](=O)[O-])cc(/C=C/C(=O)c2ccc(C)cc2)c1O [compound 7, (E)-3-(2-Hydroxy-3-methoxy-5-nitrophenyl)-1-(p-tolyl)-prop-2-en-1-one] | 28.1 ± 1.3 | 16.6 ± 1.5 | 1.6 | 104 ± 1.9 | 0.2 | 23.8 ± 2.8 | 1.1 |  |  | 26.6 ± 1.8 | 1.0 |  |  |
| COc1cc(N)cc(/C=C/C(=O)c2ccc(C)cc2)c1O [compound 8, (E)-3-(5-Amino-2-hydroxy-3-methoxyphenyl)-1-(p-tolyl)-prop-2-en-1-one] | 40.9 ± 2 |  |  | 158.6 ± 1.4 | 0.2 | 53.1 ± 2.6 | 0.7 |  |  | 11.5 ± 1.8 | 3.5 |  |  |
| CCCc1cc(/C=C/C(=O)c2ccc(O)cc2)c(O)c(OC)c1 [compound 10, (E)-3-(2-Hydroxy-3-methoxy-5-propylphenyl)-1-(4-hydroxyphenyl)-prop-2-en-1-one] | 5 ± 1.3 | 18.9 ± 1.6 | 0.2 | 34.9 ± 1.4 | 0.1 | 7.2 ± 1.2 | 0.7 |  |  | 17.9 ± 2 | 0.2 |  |  |
| CCCc1cc(/C=C/C(=O)c2ccccc2)c(O)c(OC)c1 [compound 11, (E)-3-(2-Hydroxy-3-methoxy-5-propylphenyl)-1-phenylprop-2-en-1-one] | 11 ± 1.2 | 4.6 ± 1.2 | 2.3 | 9.2 ± 1.2 | 1.2 | 11.9 ± 1.5 | 0.9 |  |  | 2.1 ± 1.1 | 5.2 |  |  |
| CCCc1cc(/C=C/C(=O)c2ccc(C(=O)/C=C/c3cc(CCC)cc(OC)c3O)cc2)c(O)c(OC)c1 [compound 12, (2E,2′E)-1,1′-(1,4-Phenylene)-bis(3-(2-hydroxy-3-methoxy-5-propylphenyl)-prop-2-en-1-one)] | 35 ± 1.5 |  |  | 10.4 ± 1.7 | 3.3 | 33.7 ± 2.4 | 1.0 |  |  | 20.4 ± 1.5 | 1.7 |  |  |
| CCCc1cc(OC)c(O)c(C(=O)/C=C/c2ccccc2)c1 [compound 15, (E)-1-(2-Hydroxy-3-methoxy-5-propylphenyl)-3-phenylprop-2-en-1-one] | 18.4 ± 1.9 | 16.1 ± 1.2 | 1.1 | 18.4 ± 1.9 | 1 | 5.4 ± 1.2 | 3.3 |  |  | 13.7 ± 1.5 | 1.3 |  |  |
| CCCc1cc(OC)c(O)c(C(=O)/C=C/c2ccc(C)cc2)c1 [compound 16, (E)-1-(2-Hydroxy-3-methoxy-5-propylphenyl)-3-(p-tolyl)-prop-2-en-1-one] | 7.7 ± 1.5 | 6.6 ± 1.4 | 1.1 | 17.1 ± 2.1 | 0.4 | 10.9 ± 1.5 | 0.7 |  |  | 12.8 ± 1.3 | 0.6 |  |  |
| CCCc1cc(OC)c(O)c(C(=O)/C=C/c2ccc(O)cc2)c1 [compound 17, (E)-1-(2-Hydroxy-3-methoxy-5-propylphenyl)-3-(4-hydroxyphenyl)-prop-2-en-1-one] | 12.7 ± 1.4 | 19.4 ± 1.4 | 0.6 | 36.4 ± 1.5 | 0.3 | 39 ± 1.5 | 0.3 |  |  | 114 ± 2.1 | 0.1 |  |  |
| CCCc1cc(OC)c(O)c(C(=O)/C=C/c2ccc(F)cc2)c1 [compound 18, (E)-3-(4-Fluorophenyl)-1-(2-hydroxy-3-methoxy-5-propylphenyl)-prop-2-en-1-one] | 11.5 ± 1.2 | 8.3 ± 1.2 | 1.3 | 15.4 ± 1.5 | 0.7 | 4.8 ± 1.4 | 2.3 |  |  | 4.1 ± 1.3 | 2.8 |  |  |
| COc1cccc2c1C(=O)c1c(O)c3c(c(O)c1C2=O)C[C@@](O)(C(=O)CO)C[C@@H]3O[C@H]1C[C@H](N)[C@H](O)[C@H](C)O1 [doxorubicin, reference compound] | 0.6 ± 1.2 | 0.06 |  | 4.4 ± 1.3 | 0.1 | 0.5 | 1.3 |  |  | 2.9 ± 1.1 | 0.2 |  |  |
| C=CC(C)(C)c1cc(/C=C/C(=O)c2ccc(O)cc2)c(OC)cc1O [licochalcone A] |  |  |  |  |  |  |  |  |  |  |  |  | effectively inhibited migration and invasion |

Source: publication PMC12713470, “Design and Synthesis of Novel Chalcone Derivatives Targeting Bladder and Liver Cancer: Cytotoxicity Evaluation and Preliminary Mechanistic Studies” (ACS Omega, 2025)
